The target of one assay is M3 (Homo sapiens, UniProt P20309). Put plainly: CNS receptor binding, muscarinic M3. The following applies: CHO cell line, [3H]-NMS(1). As to the method:
(§1) Albiflorin (10 μM) was tested for numerous other potential binding targets by using standard receptor binding procedures. The tested targets included the following receptors: D1, D2, D3, D4, D5, 5-HT1A, 5-HT1B, 5-HT1D, 5-HT2a, 5-HT2C, 5-HT3, 5-HT5A, 5-HT6, 5-HT7, α1A, α1B, α2A, β1, M1, M2, M3, M4, M5, μ, κ, δ, A1, A2A, H1, H2, H3, H4.

A further assay concerns the target T1, rat SERT (Rattus norvegicus, UniProt P31652).
T1 construct: from tissue; host or cells: Sprague-Dawley rat cerebral cortex membranes
The assay can be described thus: Rat monoamine transporter binding assay, SERT. As to conditions: [3H]-citalopram, Cerebral cortex. As to the method:
(§2) Male Sprague–Dawley rats were killed by cervical dislocation, and their brains were rapidly removed and then dissected on ice. The cerebral cortex, hypothalamus and striatum were homogenised in 4 mL of assay buffer (50 mM Tris–HCl buffer, pH 7.4.) and centrifuged at 40,000× g for 10 min at 4 °C. The pellets were centrifuged twice at 20,000× g and then resuspended in 4 mL of assay buffer. […] Bio-Rad protein assay reagents (1:5 ratio) were used to analyse the protein concentration of the synaptosomal suspension.
(§3) All data for inhibition curves were analysed by nonlinear regression using Prism software (GraphPad Software Inc., San Diego, CA) to determine IC50 values. For the microdialysis experiments, two-way repeated-measures ANOVA followed by Tukey’s test was used to compare the percentage increase over baseline between groups, time and treatment as independent factors, and time as the repeated factor.

The next assay concerns the target M5 (Homo sapiens, UniProt P08912). The assay can be described thus: CNS receptor binding, muscarinic M5. The following applies: CHO cell line, [3H]-NMS(1). As to the method:
as §1

Another assay deals with T2, D2 (Homo sapiens, UniProt P14416).
T2 construct: expressed in transfected cells; host or cells: HEK293 cell line
T2 sequence (P14416 whole entry): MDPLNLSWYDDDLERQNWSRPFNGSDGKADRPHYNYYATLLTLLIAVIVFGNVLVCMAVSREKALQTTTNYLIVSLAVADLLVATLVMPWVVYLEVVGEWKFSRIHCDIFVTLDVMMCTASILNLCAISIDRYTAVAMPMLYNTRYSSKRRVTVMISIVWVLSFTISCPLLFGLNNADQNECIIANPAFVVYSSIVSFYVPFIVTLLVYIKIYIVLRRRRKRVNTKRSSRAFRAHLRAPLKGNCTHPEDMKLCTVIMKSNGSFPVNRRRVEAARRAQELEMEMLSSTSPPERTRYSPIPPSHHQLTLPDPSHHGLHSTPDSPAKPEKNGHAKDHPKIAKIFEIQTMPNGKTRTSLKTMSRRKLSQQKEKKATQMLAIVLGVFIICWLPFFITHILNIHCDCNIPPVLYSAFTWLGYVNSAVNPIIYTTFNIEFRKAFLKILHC
Put plainly: CNS receptor binding, dopamine D2. The following applies: HEK293 cell line, [3H]-spiperone(1). As to the method: as §1

Another assay has as its target T3, rat NET (Rattus norvegicus, UniProt Q63380).
T3 construct: from tissue; host or cells: Sprague-Dawley rat hypothalamus membranes
Put plainly: Rat monoamine transporter binding assay, NET. As to the method: as §2, §3

Where [1] appears, read: read-out: IC50 values for albiflorin.

Each structure is given as a SMILES string. Values joined by “and” are separate entries in the source; they are usually repeats but may differ in a detail not shown here. Equal entries are not always repeated.

Experimental findings from article PMC5028780, “Receptor and transporter binding and activity profiles of albiflorin extracted from Radix paeoniae Alba” (Scientific Reports, 2016) are described below.

T3 sequence (Q63380 1-617): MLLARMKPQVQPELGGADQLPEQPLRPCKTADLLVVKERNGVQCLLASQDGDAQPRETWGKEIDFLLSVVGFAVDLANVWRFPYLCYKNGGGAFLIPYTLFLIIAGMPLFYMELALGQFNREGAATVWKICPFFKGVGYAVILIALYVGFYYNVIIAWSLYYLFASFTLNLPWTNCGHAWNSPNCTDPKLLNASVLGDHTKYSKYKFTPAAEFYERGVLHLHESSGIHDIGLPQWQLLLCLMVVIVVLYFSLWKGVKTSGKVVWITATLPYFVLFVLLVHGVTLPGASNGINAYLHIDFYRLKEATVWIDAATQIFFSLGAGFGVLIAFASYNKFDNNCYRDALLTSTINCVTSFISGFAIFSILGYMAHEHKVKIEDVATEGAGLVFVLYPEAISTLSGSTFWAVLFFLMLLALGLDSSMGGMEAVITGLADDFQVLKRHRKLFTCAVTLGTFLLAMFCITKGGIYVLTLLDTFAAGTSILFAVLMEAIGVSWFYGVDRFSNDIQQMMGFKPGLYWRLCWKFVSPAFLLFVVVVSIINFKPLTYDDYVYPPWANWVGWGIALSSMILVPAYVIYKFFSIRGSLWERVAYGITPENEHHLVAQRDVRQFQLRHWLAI
M5, sequence (P08912 whole entry): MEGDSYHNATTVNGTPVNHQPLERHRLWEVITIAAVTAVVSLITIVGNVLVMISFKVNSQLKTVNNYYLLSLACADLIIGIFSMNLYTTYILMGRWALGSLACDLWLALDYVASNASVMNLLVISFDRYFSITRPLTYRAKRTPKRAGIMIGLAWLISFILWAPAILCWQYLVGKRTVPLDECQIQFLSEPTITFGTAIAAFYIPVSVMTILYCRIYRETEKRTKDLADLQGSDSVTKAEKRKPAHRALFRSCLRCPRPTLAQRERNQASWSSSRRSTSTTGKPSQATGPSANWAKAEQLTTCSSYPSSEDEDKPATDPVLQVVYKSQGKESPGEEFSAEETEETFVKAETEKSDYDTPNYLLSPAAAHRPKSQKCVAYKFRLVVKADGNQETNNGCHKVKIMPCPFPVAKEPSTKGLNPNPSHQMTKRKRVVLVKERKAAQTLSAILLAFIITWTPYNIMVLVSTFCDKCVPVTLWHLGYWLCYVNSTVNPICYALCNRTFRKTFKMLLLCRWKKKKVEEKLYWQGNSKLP
M3, sequence (P20309 whole entry): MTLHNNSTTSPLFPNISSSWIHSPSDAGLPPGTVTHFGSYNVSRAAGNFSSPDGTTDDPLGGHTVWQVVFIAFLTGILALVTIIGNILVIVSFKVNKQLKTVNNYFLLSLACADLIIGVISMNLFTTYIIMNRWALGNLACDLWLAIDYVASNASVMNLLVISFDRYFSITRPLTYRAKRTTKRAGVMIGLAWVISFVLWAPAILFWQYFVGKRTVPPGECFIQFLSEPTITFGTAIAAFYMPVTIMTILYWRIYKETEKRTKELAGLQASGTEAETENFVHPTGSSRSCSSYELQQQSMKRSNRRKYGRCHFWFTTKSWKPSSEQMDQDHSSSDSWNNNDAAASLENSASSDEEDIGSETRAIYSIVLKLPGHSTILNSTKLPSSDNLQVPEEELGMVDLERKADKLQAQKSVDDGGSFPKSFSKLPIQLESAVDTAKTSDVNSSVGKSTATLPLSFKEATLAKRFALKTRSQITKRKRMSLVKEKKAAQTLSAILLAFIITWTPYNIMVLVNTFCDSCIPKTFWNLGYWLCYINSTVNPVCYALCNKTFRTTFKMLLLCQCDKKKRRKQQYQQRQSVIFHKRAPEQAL
T1 sequence (P31652 whole entry): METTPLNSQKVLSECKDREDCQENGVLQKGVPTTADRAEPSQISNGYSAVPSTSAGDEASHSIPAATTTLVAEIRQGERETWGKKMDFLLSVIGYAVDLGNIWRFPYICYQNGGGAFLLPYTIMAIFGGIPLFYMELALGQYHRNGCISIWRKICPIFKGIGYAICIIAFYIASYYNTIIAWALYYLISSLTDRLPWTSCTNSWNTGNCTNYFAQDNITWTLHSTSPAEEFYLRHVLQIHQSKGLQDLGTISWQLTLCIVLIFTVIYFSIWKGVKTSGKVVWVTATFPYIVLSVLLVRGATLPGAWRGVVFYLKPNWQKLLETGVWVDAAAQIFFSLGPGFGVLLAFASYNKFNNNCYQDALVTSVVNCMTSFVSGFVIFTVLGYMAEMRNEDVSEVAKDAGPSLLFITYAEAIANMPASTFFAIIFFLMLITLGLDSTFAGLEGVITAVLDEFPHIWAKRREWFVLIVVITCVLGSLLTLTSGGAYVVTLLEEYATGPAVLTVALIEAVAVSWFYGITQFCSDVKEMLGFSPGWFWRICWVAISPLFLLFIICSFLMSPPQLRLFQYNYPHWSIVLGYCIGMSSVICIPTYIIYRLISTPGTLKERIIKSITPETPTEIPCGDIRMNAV

On to `C[C@]12C[C@@H](O)[C@@H]3C[C@@]1(O[C@@H]1O[C@H](CO)[C@@H](O)[C@H](O)[C@H]1O)[C@@]3(COC(=O)c1ccccc1)C(=O)O2` [albiflorin, Albiflorin], for which the “% Inhibition of binding at 10 μM albiflorin” value on M3 amounted to 25.66%; at M5 it was 20.11%; on D2, 12.50%. The IC50 on M3 (setting [1]), on M5 (setting [1]) and at D2 (setting [1]) was more than 10000 nM in each case. Further, the inhibition constant (Ki) on rat SERT was 5.25 ± 0.17 nM; at rat NET (Rat, [3H]-nisoxetine, Hypothalamus), 1.25 ± 0.77 nM. Moreover, the “potency/affinity relative to desipramine at the rat NET” value on rat NET (albiflorin vs desipramine) is 4 fold and 6 fold.

A word on the IC50: it is the concentration at which inhibition is half-maximal. What is called Ki is a measure of affinity in units of concentration, obtained from inhibition or displacement.
